Experimental data from ChEMBL document CHEMBL3352611, “Deconstruction of 6,7-dimethoxy-1,2,3,4-tetrahydroisoquinoline moiety to separate P-glycoprotein (P-gp) activity from σ2 receptor affinity in mixed P-gp/σ2 receptor agents” (Eur J Med Chem, 2015).

Tests used:
[1] = target: Sigma non-opioid intracellular receptor 1 (Cavia porcellus, UniProt Q60492); experiment: Displacement of (+)-[3H]-pentazocine from sigma1 recetor in guinea-pig brain membranes without cerebellum by radioligand binding assay; format: cell membranes, Membrane
[2] = Selectivity index, ratio of Ki for sigma1 recetor in guinea-pig brain membranes to Ki for sigma2 receptor in rat liver membranes; format: cell membranes
[3] = Displacement of [3H]-DTG from sigma2 receptor in rat liver membranes in presence of […] (+)-pentazocine by radioligand binding assay; format: cell membranes, Membrane
[4] = target: ATP-dependent translocase ABCB1 (Homo sapiens, UniProt P08183); experiment: Activity at MDR1 (unknown origin) expressed in MDCK-MDR1 cells by Calcein-AM assay; format: cell-based
[5] = target: Sigma non-opioid intracellular receptor 1 (Cavia porcellus) (UniProt Q60492); settings: Brain, Membrane, 10 pM
Sigma non-opioid intracellular receptor 1 (Cavia porcellus), sequence (Q60492 whole entry): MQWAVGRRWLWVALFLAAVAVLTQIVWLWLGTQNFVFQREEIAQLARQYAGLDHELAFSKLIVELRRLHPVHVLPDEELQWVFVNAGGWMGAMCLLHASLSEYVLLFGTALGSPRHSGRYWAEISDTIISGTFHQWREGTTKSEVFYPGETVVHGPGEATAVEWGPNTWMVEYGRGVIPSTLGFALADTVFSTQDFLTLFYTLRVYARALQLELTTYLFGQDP

Sigma non-opioid intracellular receptor 1, sequence (Q60492 whole entry): as above
ATP-dependent translocase ABCB1, sequence (P08183 whole entry): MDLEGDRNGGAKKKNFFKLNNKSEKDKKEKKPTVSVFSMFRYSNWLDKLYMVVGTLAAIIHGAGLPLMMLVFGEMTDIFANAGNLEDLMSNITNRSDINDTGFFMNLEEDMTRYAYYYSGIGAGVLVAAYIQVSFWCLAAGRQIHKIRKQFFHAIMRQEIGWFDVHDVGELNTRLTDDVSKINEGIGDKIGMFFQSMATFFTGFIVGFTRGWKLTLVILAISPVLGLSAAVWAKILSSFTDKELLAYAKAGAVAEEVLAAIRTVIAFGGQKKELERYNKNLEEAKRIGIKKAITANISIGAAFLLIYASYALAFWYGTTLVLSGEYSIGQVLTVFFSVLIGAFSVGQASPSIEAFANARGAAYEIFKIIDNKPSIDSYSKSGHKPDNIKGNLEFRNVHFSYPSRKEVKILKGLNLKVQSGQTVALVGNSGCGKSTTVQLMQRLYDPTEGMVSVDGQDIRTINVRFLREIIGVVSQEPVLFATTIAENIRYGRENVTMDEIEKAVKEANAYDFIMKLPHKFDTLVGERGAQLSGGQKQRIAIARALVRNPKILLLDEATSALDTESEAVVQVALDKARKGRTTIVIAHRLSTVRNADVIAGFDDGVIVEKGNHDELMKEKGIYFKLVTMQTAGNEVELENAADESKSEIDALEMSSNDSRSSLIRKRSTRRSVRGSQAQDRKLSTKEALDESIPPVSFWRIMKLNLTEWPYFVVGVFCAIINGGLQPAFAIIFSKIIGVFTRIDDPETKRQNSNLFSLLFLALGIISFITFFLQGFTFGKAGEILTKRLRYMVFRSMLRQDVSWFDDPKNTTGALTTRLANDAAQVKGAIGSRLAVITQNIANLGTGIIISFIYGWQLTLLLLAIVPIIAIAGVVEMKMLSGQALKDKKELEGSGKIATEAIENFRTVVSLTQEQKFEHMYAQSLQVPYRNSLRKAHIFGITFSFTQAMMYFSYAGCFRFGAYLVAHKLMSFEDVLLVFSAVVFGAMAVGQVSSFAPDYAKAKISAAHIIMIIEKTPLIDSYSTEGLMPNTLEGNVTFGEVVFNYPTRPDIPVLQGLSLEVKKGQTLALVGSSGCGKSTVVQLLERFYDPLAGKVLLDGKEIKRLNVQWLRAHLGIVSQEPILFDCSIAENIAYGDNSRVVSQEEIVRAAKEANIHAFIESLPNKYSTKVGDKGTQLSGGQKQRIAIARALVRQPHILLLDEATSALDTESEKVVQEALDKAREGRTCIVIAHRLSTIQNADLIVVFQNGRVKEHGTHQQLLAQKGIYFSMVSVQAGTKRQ

| SMILES | Ki [1] | Ratio Ki [2] | Ki [3] | EC50 [4] | inhibition [5] |
| --- | --- | --- | --- | --- | --- |
| COc1ccc2c(c1OC)CCC2NCCCCc1cn(-c2ccc(F)cc2)c2ccccc12 (racemic) | 215 nM | 1.87 | 115 nM | 870 nM |  |
| CCN(CCCCc1cn(-c2ccc(F)cc2)c2ccccc12)Cc1ccc(OC)cc1 |  |  | 69.8 nM | 4680 nM |  |
| COc1ccc(CNCCCCc2cn(-c3ccc(F)cc3)c3ccccc23)cc1OC | 2700 nM | 16 | 169 nM | 1040 nM |  |
| COc1ccc2c(c1OC)CC[C@@H]2NCCCCc1cn(-c2ccc(F)cc2)c2ccccc12 | 122 nM | 0.8 | 152 nM | 1340 nM |  |
| COc1cc2c(cc1OC)CN(CC/C=C1\CCCc3c(OC)cccc31)CC2 |  |  |  | 820 nM |  |
| CCN(CCCCc1cn(-c2ccc(F)cc2)c2ccccc12)[C@@H]1CCc2c1ccc(OC)c2OC | 126 nM | 3.58 | 35.2 nM | 1740 nM |  |
| CCN(CCCCc1cn(-c2ccc(F)cc2)c2ccccc12)Cc1cccc(OC)c1 | 2.44 nM | 0.03 | 91 nM | 4580 nM |  |
| COc1cccc(CNCCCCc2cn(-c3ccc(F)cc3)c3ccccc23)c1 | 544 nM | 2.4 | 227 nM | 2950 nM |  |
| CCN(CCCCc1cn(-c2ccc(F)cc2)c2ccccc12)[C@H]1CCc2c1ccc(OC)c2OC | 50.8 nM | 2.67 | 19 nM | 700 nM |  |
| COc1cccc(CCN(C)CCCCc2cn(-c3ccc(F)cc3)c3ccccc23)c1 | 17.5 nM | 0.16 | 111 nM | 6570 nM |  |
| CCN(CCCCc1cn(-c2ccc(F)cc2)c2ccccc12)Cc1ccc(OC)c(OC)c1 | 18.9 nM | 0.19 | 97.1 nM | 1790 nM | 85% |
| COc1ccc(CCNCCCCc2cn(-c3ccc(F)cc3)c3ccccc23)cc1OC | 939 nM | 0.45 | 2100 nM | 1120 nM |  |
| COc1cc2c(cc1OC)CN(CCCCc1cn(-c3ccc(F)cc3)c3ccccc13)CC2 |  | 260 | 5.34 nM | 210 nM |  |
| COc1ccc(CCN(C)CCCCc2cn(-c3ccc(F)cc3)c3ccccc23)cc1OC | 337 nM | 0.97 | 346 nM | 1350 nM |  |
| COc1ccc(CCNCCCCc2cn(-c3ccc(F)cc3)c3ccccc23)cc1 | 431 nM | 0.3 | 1400 nM | 2850 nM |  |
| COc1ccc(CNCCCCc2cn(-c3ccc(F)cc3)c3ccccc23)cc1 | 129 nM | 0.56 | 231 nM | 7660 nM |  |
| COc1ccc(CCN(C)CCCCc2cn(-c3ccc(F)cc3)c3ccccc23)cc1 | 67.4 nM | 0.2 | 334 nM | 4490 nM |  |
| COc1ccc2c(c1OC)CC[C@H]2NCCCCc1cn(-c2ccc(F)cc2)c2ccccc12 | 175 nM | 0.69 | 252 nM | 3450 nM |  |
| CCN(CCCCc1cn(-c2ccc(F)cc2)c2ccccc12)C1CCc2c1ccc(OC)c2OC (racemic) | 59.2 nM | 2.14 | 27.6 nM | 960 nM |  |
| COc1cccc(CCNCCCCc2cn(-c3ccc(F)cc3)c3ccccc23)c1 | 151 nM | 0.26 | 580 nM | 7200 nM |  |
